Tests used:
Conditions in all cases: stereoisomer not certain
[1] = Other, Phenomenex Kinetex PFP, 100 × 4.6 mm, 2.6 µm, 35 °C, 1.5 mL/min, estimated dead time 0.71 min; A: water + 0.1% trifluoroacetic acid, pH 2; B: acetonitrile + 0.1% trifluoroacetic acid, pH 2; gradient (min/%B) 0/1 7/7.5 14/7.6 17/10 18.5/12 20/12.5 24/30 25/90 25.1/1 32/1
[2] = RP, Phenomenex Synergi Hydro-RP, 250 × 2 mm, 4 µm, 25 °C, 0.2 mL/min, estimated dead time 2.5 min; A: water + 0.1% formic acid, pH 3; B: acetonitrile + 0.1% formic acid, pH 3; gradient (min/%B) 0/0.5 7/0.5 12/12.5 25/16.3 47/35 48/65 50/65 50.1/0.5
[3] = RP, Agilent ZORBAX RRHD Eclipse Plus C18, 50 × 2.1 mm, 1.8 µm, 30 °C, 0.4 mL/min, estimated dead time 0.28 min; A: water + 0.1% formic acid, pH 3; B: acetonitrile + 0.1% formic acid, pH 3; gradient (min/%B) 0/1 5/10 8/25 9.1/99 10/99 12/99
[4] = RP, Waters ACQUITY UPLC BEH Shield RP18, 100 × 2.1 mm, 1.7 µm, 30 °C, 0.6 mL/min, estimated dead time 0.37 min; A: water + 0.1% formic acid, pH 3; B: acetonitrile + 0.1% formic acid, pH 3; gradient (min/%B) 0/0 2/0 7/10 22/95 22.1/0 26/0
[5] = RP, Waters ACQUITY UPLC HSS T3, 100 × 2.1 mm, 1.8 µm, 30 °C, 0.4 mL/min, estimated dead time 0.55 min; A: water + 0.1% formic acid, pH 3; B: acetonitrile + 0.1% formic acid, pH 3; gradient (min/%B) 0/0 2/0 15/100 22/100 22.1/0 26/0
[6] = RP, Phenomenex Synergi Hydro-RP, 150 × 2 mm, 4 µm, 30 °C, 0.5 mL/min, estimated dead time 0.6 min; A: water + 0.1% formic acid, pH 3; B: acetonitrile + 0.1% formic acid, pH 3; gradient (min/%B) 0/5 1/5 35/45 40/100 45/100
[7] = RP, Agilent InfinityLab Poroshell 120 EC-C18, 100 × 3 mm, 2.7 µm, 25 °C, 0.4 mL/min, estimated dead time 1.1 min; A: water + 0.1% formic acid, pH 3; B: acetonitrile + 0.1% formic acid, pH 3; gradient (min/%B) 0/5 10/25 20/40 24/90 25/90 26/5 30/5
[8] = RP, Waters ACQUITY UPLC BEH Shield RP18, 150 × 2.1 mm, 1.7 µm, 40 °C, 0.4 mL/min, estimated dead time 0.83 min; A: water + 0.1% formic acid, pH 3; B: acetonitrile + 0.1% formic acid, pH 3; gradient (min/%B) 0/0 30/50 31/100 37/100 37.1/0
[9] = RP, Agilent ZORBAX RRHD Eclipse Plus C18, 50 × 2.1 mm, 1.8 µm, 30 °C, 0.4 mL/min, estimated dead time 0.28 min; A: water + 0.1% formic acid, pH 3; B: acetonitrile + 0.1% formic acid, pH 3; gradient (min/%B) 0/1 5/10 8/25 9.1/99 10/99 12/1
[10] = RP, Phenomenex Luna Omega Polar C18, 100 × 2.1 mm, 1.6 µm, 40 °C, 0.5 mL/min, estimated dead time 0.44 min; A: water + 0.1% formic acid + 10 mM ammonium formate; B: acetonitrile; gradient (min/%B) 0/5 8/20 10/100 12/100 12.1/5 14/5
[11] = RP, Phenomenex Luna C18, 150 × 4.6 mm, 3 µm, 25 °C, 0.5 mL/min, estimated dead time 3.2 min; A: water + 0.1% formic acid, pH 3; B: acetonitrile + 0.1% formic acid, pH 3; gradient (min/%B) 0/0 30/30 35/40 50/80 52/80 60/0 65/0
[12] = RP, 50 × 0.5 mm, 2.7 µm, 35 °C, 0.01 mL/min, estimated dead time 0.62 min; A: water + 0.1% formic acid, pH 3; B: acetonitrile + 0.1% formic acid, pH 3; gradient (min/%B) 0/5 12/95 14/95 16/5
[13] = RP, Agilent ZORBAX Eclipse XDB-C18, 100 × 2.1 mm, 1.8 µm, 50 °C, 0.4 mL/min, estimated dead time 0.55 min; A: water + 0.1% formic acid, pH 3; B: methanol + 0.1% formic acid, pH 3; gradient (min/%B) 0/2 10/100 14.5/100 14.51/2 16.5/2
[14] = RP, Waters Atlantis T3, 100 × 2.1 mm, 3 µm, 40 °C, 0.3 mL/min, estimated dead time 0.73 min; A: water + 0.1% trifluoroacetic acid, pH 2; B: acetonitrile + 0.1% trifluoroacetic acid, pH 2; gradient (min/%B) 0/10 1/10 6/40 7/50 8/50 14/70 16/80 20/10 25/10
[15] = RP, 150 × 2.1 mm, 2.6 µm, 40 °C, 0.35 mL/min, estimated dead time 0.94 min; A: water + 0.1% formic acid, pH 3; B: acetonitrile + 0.1% formic acid, pH 3; gradient (min/%B) 0/0 1/0 12.5/100 14/100 14.2/0 15/0
[16] = RP, 150 × 2.1 mm, 2.6 µm, 40 °C, 0.35 mL/min, estimated dead time 0.94 min; A: water + 0.1% formic acid, pH 3; B: acetonitrile + 0.1% formic acid, pH 3; gradient (min/%B) 0/0 1/5 7/45 8.5/80 10.5/80 11/5 12/5
[17] = Other, Phenomenex Kinetex PFP, 100 × 4.6 mm, 5 µm, 45 °C, 0.6 mL/min, estimated dead time 1.8 min; A: water + 0.1% trifluoroacetic acid, pH 2; B: methanol; gradient (min/%B) 0/40 20/72 21/40
[18] = RP, Merck LiChrospher RP-18, 250 × 4 mm, 5 µm, 35 °C, 0.3 mL/min, estimated dead time 6.7 min; A: water + 0.5% formic acid; B: acetonitrile + 0.5% formic acid; gradient (min/%B) 0/5 10/5 30/15 45/20 65/20 95/54 110/63 115/5 135/5
[19] = RP, Waters ACQUITY UPLC BEH C18, 100 × 2.1 mm, 1.7 µm, 65 °C, 0.4 mL/min, estimated dead time 0.55 min; A: water + 0.1% formic acid, pH 3; B: 80% acetonitrile + 20% acetone + 0.1% formic acid, pH 3; gradient (min/%B) 0/0 5/100 5.5/0 6/0
[20] = RP, Phenomenex Luna Omega Polar C18, 100 × 2.1 mm, 1.6 µm, 40 °C, 0.5 mL/min, estimated dead time 0.44 min; A: water + 0.5% formic acid; B: acetonitrile + 0.5% formic acid; gradient (min/%B) 0/5 3/50 3.1/100 5/100 5.1/5 7/5
[21] = RP, Merck Supelco SUPELCOSIL LC-C18, 250 × 4.6 mm, 5 µm, 40 °C, 1 mL/min, estimated dead time 2.6 min; A: water + 0.1% trifluoroacetic acid, pH 2; B: acetonitrile + 0.1% trifluoroacetic acid, pH 2; gradient (min/%B) 0/5 45/35 47/75 49/35 50/5
[22] = RP, Phenomenex Kinetex EVO C18, 100 × 2.1 mm, 2.6 µm, 40 °C, 0.4 mL/min, estimated dead time 0.55 min; A: water + 0.2% formic acid; B: acetonitrile + 0.2% formic acid; gradient (min/%B) 0/5 0.5/5 7/95 8/95 8.5/5 12/5
[23] = RP, Waters ACQUITY UPLC HSS T3, 100 × 2.1 mm, 50 °C; A: water + 0.1% formic acid, pH 3; B: 30% methanol + 70% acetonitrile + 0.1% formic acid, pH 3; gradient (min/%B) 0/5 1/8 2/15 3/40 4/70 4.5/100 5/100 6.4/100 6.6/5 6.8/5 7/5

SMILES | LC retention time [1] | LC retention time [2] | LC retention time [3] | LC retention time [9] | LC retention time [13] | other results
O=C(O)c1c(O)cc(O)cc1O [2,4,6-trihydroxybenzoic acid] | 9.72 min | 15.9 min | – | – | – | –
O=Cc1c(O)cc(O)cc1O [Phloroglucinol aldehyde] | 18.5 min | 27.6 min | – | – | – | –
COc1cc(CC(=O)O)ccc1O [Homovanillic acid] | 18.8 min | – | 2.83 min | 5.94 min | 3.69 min | LC retention time [4]: 16 min; LC retention time [5]: 8.67 min; LC retention time [6]: 10.2 min; LC retention time [7]: 6.83 min; LC retention time [8]: 10.3 min; LC retention time [10]: 4.17 min; LC retention time [11]: 16.4 min; LC retention time [12]: 3.03 min
O=C(O)c1cccc(O)c1O [2,3-Dihydroxybenzoic acid] | 9.73 min | – | 3.99 min | 5.18 min | 3.5 min | LC retention time [14]: 4.79 min
O=c1ccc2ccc(O)c(O)c2o1 [7,8-Dihydroxycoumarin] | 12 min | – | – | 6.14 min | – | LC retention time [15]: 4.84 min; LC retention time [16]: 4.64 min
O=C(O)c1cc(O)cc(O)c1 [3,5-Dihydroxybenzoic acid] | 4.93 min | – | 2.82 min | 4.25 min | – | –
COc1ccc(C(=O)O)cc1 [p-anisic acid] | 20.6 min | 39.1 min | – | – | – | –
O=C(O)Cc1ccc(O)c(O)c1 [3,4-Dihydroxyphenylacetic acid] | 15.3 min | 17 min | 1.47 min | 3.6 min | 2.55 min | LC retention time [15]: 7.07 min; LC retention time [16]: 7.28 min; LC retention time [17]: 3.74 min
O=C(O)c1ccccc1 [Benzoic acid] | 15.4 min | 35.5 min | 7.28 min | 7.44 min | 5.17 min | LC retention time [17]: 7.84 min; LC retention time [18]: 71.8 min
COc1cc(C=CC(=O)O)cc(OC)c1O [Sinapic acid] | 22.3 min | 33 min | 7.99 min | 7.6 min | 4.97 min | LC retention time [15]: 2.81 min; LC retention time [16]: 2.79 min; LC retention time [4]: 12.5 min; LC retention time [5]: 9.44 min; LC retention time [6]: 15.2 min; LC retention time [7]: 9.78 min; LC retention time [8]: 11.1 min; LC retention time [10]: 7.22 min; LC retention time [19]: 2.1 min; LC retention time [20]: 2.53 min; LC retention time [21]: 23.3 min; LC retention time [11]: 25.1 min; LC retention time [12]: 4.25 min
COc1cc2ccc(=O)oc2cc1O [Scopoletin] | 20.4 min | – | – | – | – | LC retention time [15]: 5.86 min; LC retention time [16]: 5.8 min
O=C(CCc1ccc(O)cc1)c1c(O)cc(O)cc1OC1OC(CO)C(O)C(O)C1O (stereo not drawn) [Phloridzin] | 24.6 min | 39.6 min | – | – | – | LC retention time [14]: 8.22 min; LC retention time [5]: 9.96 min; LC retention time [8]: 14.2 min; LC retention time [18]: 81.1 min; LC retention time [21]: 30.8 min
O=Cc1ccc(O)cc1 [4-Hydroxybenzaldehyde] | 9.81 min | – | 4.4 min | 5.23 min | 3.42 min | LC retention time [22]: 3.43 min; LC retention time [23]: 3.28 min; LC retention time [19]: 1.92 min
O=C(O)c1ccccc1O [Salicylic acid] | 18.9 min | 37.4 min | 8.16 min | 8.13 min | 5.25 min | LC retention time [5]: 10.5 min; LC retention time [8]: 12.8 min; LC retention time [18]: 81.6 min
O=C(O)c1ccc(O)cc1O [2,4-Dihydroxybenzoic acid] | 10.9 min | – | 3.99 min | 5.18 min | – | LC retention time [14]: 5.01 min; LC retention time [7]: 6.36 min
